Experiment: Comparison of storage stability of suspension concentrates (CIPAC MT 46.3)
Type: physicochemical
Description: Samples prepared in Examples 4 and 5 were stored at 54° C. for 1 month, 3 months and 6 months. The procedures are followed according to CIPAC MT 46.3. The concentration of spirodiclofen was measured at the end of each storage time by HPLC. The aggregation was measured by observation. The original concentration of spirodiclofen in each formulation was 25%.

SMILES	storage stability / aggregation after prolong storage (listed as spirodiclofen in amorphous state)	storage stability / aggregation after prolong storage (listed as crystalline modification I of spirodiclofen)
CCC(C)(C)C(=O)OC1=C(c2ccc(Cl)cc2Cl)C(=O)OC12CCCCC2 [Example 1, 3-(2,4-dichlorophenyl)-2-oxo-1-oxaspiro[4.5]dec-3-en-4-yl-2,2-dimethyl butyrate]	high tendency of aggregation	
CCC(C)(C)C(=O)OC1=C(c2ccc(Cl)cc2Cl)C(=O)OC12CCCCC2 [Example 2, 3-(2,4-dichlorophenyl)-2-oxo-1-oxaspiro[4.5]dec-3-en-4-yl-2,2-dimethyl butyrate]		significant improvement in its stability without aggregation
